Values quoted from earlier work as cited in patent US12653843B2, “Compositions comprising extracellular matrix of primitive animal species and related methods” (University of Pittsburgh—Of the Commonwealth System of …, priority 2016, dated 2026).

Target: ErbB2 (Homo sapiens, UniProt P04626)
Sequence (P04626 23-1255, species assumed): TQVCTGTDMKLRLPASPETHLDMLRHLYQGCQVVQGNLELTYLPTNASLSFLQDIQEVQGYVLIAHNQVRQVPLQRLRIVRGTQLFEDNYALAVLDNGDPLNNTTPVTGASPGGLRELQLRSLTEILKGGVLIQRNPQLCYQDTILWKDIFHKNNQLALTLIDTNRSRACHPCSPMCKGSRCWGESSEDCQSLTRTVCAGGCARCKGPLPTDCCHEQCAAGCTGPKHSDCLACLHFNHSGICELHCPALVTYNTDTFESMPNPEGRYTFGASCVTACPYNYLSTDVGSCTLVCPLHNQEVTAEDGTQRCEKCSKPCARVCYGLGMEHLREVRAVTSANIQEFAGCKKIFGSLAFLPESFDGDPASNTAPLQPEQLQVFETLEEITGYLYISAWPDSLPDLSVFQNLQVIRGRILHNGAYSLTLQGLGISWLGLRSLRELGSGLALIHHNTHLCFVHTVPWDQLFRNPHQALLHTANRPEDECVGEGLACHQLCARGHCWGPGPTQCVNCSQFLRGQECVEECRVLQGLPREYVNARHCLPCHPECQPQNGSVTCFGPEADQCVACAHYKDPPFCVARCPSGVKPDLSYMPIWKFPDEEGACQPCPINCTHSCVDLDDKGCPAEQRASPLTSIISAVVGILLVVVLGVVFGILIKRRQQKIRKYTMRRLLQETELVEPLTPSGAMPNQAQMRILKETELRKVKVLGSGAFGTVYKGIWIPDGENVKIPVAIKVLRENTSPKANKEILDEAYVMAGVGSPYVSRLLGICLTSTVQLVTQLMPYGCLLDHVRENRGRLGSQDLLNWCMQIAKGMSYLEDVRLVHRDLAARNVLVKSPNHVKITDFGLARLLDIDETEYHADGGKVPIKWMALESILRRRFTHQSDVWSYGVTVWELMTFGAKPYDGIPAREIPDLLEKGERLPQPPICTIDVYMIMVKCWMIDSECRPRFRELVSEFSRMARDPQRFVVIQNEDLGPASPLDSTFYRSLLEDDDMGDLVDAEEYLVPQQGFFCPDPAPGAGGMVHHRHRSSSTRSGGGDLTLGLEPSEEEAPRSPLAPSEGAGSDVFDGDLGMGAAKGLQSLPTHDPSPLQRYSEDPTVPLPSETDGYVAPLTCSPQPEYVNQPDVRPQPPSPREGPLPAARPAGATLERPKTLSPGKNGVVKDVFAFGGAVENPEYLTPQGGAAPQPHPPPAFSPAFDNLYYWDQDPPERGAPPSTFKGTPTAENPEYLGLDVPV

- selectivity: inhibition of ErbB2 autophosphorylation versus ErbB1 (EGFR): ~60 fold
SMILES: COc1cc(/C=C(\C#N)C(N)=O)cc(CSc2nc3ccccc3s2)c1O [AG825]
